Reference: ChEMBL document CHEMBL1146977, “Taxoid from the needles of the Himalayan yew Taxus wallichiana with cytotoxic and immunomodulatory activities” (Bioorg Med Chem Lett, 2006)
In brackets after ≈: the same amount, converted by molar mass.

Experiments:
Format in all cases: functional, cell-based
MCF7 [1] = test: Cytotoxicity against human MCF7 cells by MTT assay
MCF7 [2] = test: Cytotoxicity against human MCF7 cells by clonogenic assay
WRL68 [3] = test: Cytotoxicity against human WRL68 cells by MTT assay
WRL68 [4] = test: Cytotoxicity against human WRL68 cells by clonogenic assay
KB [5] = test: Cytotoxicity against human KB cells by MTT assay
KB [6] = test: Cytotoxicity against human KB cells by clonogenic assay
PA-1 [7] = test: Cytotoxicity against human PA1 cells by MTT assay
PA-1 [8] = test: Cytotoxicity against human PA1 cells by clonogenic assay
COLO 320DM [9] = test: Cytotoxicity against human Colo320DM cells by MTT assay
COLO 320DM [10] = test: Cytotoxicity against human Colo320DM cells by clonogenic assay

Structure (SMILES)	IC50 (MCF7 [1]) [µg/mL]	IC50 (MCF7 [2]) [µg/mL]	IC50 (WRL68 [3]) [µg/mL]	IC50 (WRL68 [4]) [µg/mL]	IC50 (KB [5]) [µg/mL]	IC50 (KB [6]) [µg/mL]	IC50 (PA-1 [7]) [µg/mL]	IC50 (PA-1 [8]) [µg/mL]	IC50 (COLO 320DM [9]) [µg/mL]	IC50 (COLO 320DM [10]) [µg/mL]
CC[C@]1(O)C[C@@H]2CN(CCc3c([nH]c4ccccc34)[C@@](C(=O)OC)(c3cc4c(cc3OC)N(C)[C@H]3[C@@](O)(C(=O)OC)[C@H](OC(C)=O)[C@]5(CC)C=CCN6CC[C@]43[C@@H]65)C2)C1 [VINBLASTINE]	0.02 (≈ 0.0247 µM)	0.22 (≈ 0.271 µM)	1.45 (≈ 1.79 µM)	2.6 (≈ 3.21 µM)	0.046 (≈ 0.0567 µM)	0.46 (≈ 0.567 µM)	0.025 (≈ 0.0308 µM)	1.15 (≈ 1.42 µM)	0.52 (≈ 0.641 µM)	1.6 (≈ 1.97 µM)
C=C1[C@H]2C[C@]3(O)C[C@H](OC(C)=O)C(C)=C([C@@H](OC(C)=O)[C@H](OC(C)=O)[C@]2(C)[C@@H](OC(C)=O)C[C@@H]1O)C3(C)C	0.18 (≈ 0.335 µM)	8.42 (≈ 15.7 µM)	1.65 (≈ 3.07 µM)	12.8 (≈ 23.9 µM)	0.04 (≈ 0.0745 µM)	1.23 (≈ 2.29 µM)	0.01 (≈ 0.0186 µM)	0.85 (≈ 1.58 µM)	0.23 (≈ 0.429 µM)	1.82 (≈ 3.39 µM)
CC[C@]1(O)C[C@H]2CN(CCc3c([nH]c4ccccc34)[C@@](C(=O)OC)(c3cc4c(cc3OC)N(C=O)[C@H]3[C@@](O)(C(=O)OC)[C@H](OC(C)=O)[C@]5(CC)C=CCN6CC[C@]43[C@@H]65)C2)C1 [VINCRISTINE]	0.05 (≈ 0.0606 µM)	0.15 (≈ 0.182 µM)	1.42 (≈ 1.72 µM)	8.5 (≈ 10.3 µM)	0.02 (≈ 0.0242 µM)	0.25 (≈ 0.303 µM)	0.01 (≈ 0.0121 µM)	1 (≈ 1.21 µM)	0.46 (≈ 0.558 µM)	1.5 (≈ 1.82 µM)
